Columns and labels:
[1] = system: human leukemia K562 cells; assay: WST-1 cell proliferation assay, K562 leukemia cells; type: cell-based; details: for anti-proliferative effect on leukemic K562 cells: WST-1, FIGS. 3B, 4A
Protocol: The graphs show results of different concentrations of the compounds using the WST-1 spectrophotometric detection assay. WST is a colorimetric assay to assess cell proliferation under different treatment conditions. This assay is based on the cleavage of a tetrazolium salt (2-(4-Iodophenyl)-3-(4-nitrophenyl)-5-phenyl-2h-tetrazolium chloride) to form formazan (a colored compound) by mitochondrial dehydrogenases in viable cells. As a result, the assay measures the net metabolic activity of the cells. Human leukemia K562 cell line was purchased from ATCC (Manassas, Va., USA) and plated a day before the experiment in normal growth medium. The next day, the medium was replaced with serum free medium (Gibco #11835-030) to starve the cells for 4 h. Cells were deprived of serum for 4 h before treatment with the lipids to eliminate binding of the compounds to serum proteins. After starvation, K562 cells were then centrifuged. The medium was replaced with fresh IMDM media containing 1% (v/v) FBS and 100 units of PS. Cells (1×104 in 100 L) were seeded into each well with conditioned medium for overnight (20 h) in a 96-well plate to which the test compounds (−ve control ethanol, Ft-3, F-6 and S5) were added at the concentrations indicated. A volume of 10 uL WST-1, cell proliferation assay reagent (Roche Diagnostics, Indianapolis, Ind., USA), was added to each well and incubated for 4 h, and then the wells were read on a plate reader at 450 nm with a reference reading at 650 nm. Reference reading at 650 nm was used for subtracting background readouts.
Another embodiment of the anti-cancer oral composition was prepared by combining lipid Fraction 3 of the neutral lipid fraction and ethanol in a ratio of 20 μg/μL to provide a mixture. The mixture was prepared by dissolving Fraction 3 in pure ethanol then diluting it to the desired concentration with culture medium. Cells (1×10^4) were starved overnight in serum-free medium, then the medium was replaced prior to incubation with IMDM/1% FBS/pen-strep. […]

breast MCF-7 cells = assay: WST-1 cell proliferation assay, MCF-7 breast cancer cells; type: cell-based, human; details: WST-1, FIG. 4B
Protocol: FIG. 4B is a graph showing the effect of fraction 3 of the neutral lipids, furan (F6), and a steroid found in fraction 3 of the neutral lipids, (S5) and the two isolated components from fraction 3 of the neutral lipids on breast MCF-7 cells using the WST-1 spectrophotometric detection assay. WST was performed to assess cell proliferation under different treatment conditions. The assay measured the net metabolic activity of the cells. Human breast MCF-7 cell line was purchased from ATCC (Manassas, Va., USA). 1×10^4 cells/well/100 L) and were plated a day before experiment in normal growth medium. The next day, the medium was replaced with serum free medium (Gibco #11835-030) to starve the cells for 4 h. Cells were deprived of serum for 4 h before treatment with the lipids to eliminate binding of the compounds to serum proteins. After starvation, the medium was replaced with fresh IMDM media containing 1% (v/v) FBS and 100 units of PS. Cells (1×104 in 100 L) were seeded into each well with conditioned medium overnight (20 h) in a 96-well plate to which the test compounds (−ve control ethanol, Fr-3 of the neutral lipids, F6 and S5) were added at the concentrations indicated. […] Then, the wells were read on a plate reader at 450 nm with a reference reading at 650 nm. Reference reading at 650 nm was used for subtracting background readouts.

[2] = system: human breast cancer cells MDA MB-231; assay: WST-1 cell proliferation assay, MDA MB-231 breast cancer cells; type: cell-based; details: WST-1, FIG. 4C
Protocol: FIG. 4C is a graph showing the effect of fraction 3 of the neutral lipids, furan (F6), and a steroid (S5) on human breast cancer cells MDA MB-231 using the WST-1 spectrophotometric detection assay. The assay measured the net metabolic activity of the cells. Human breast MDA MB-231 cell line was purchased from ATCC (Manassas, Va., USA). MCF-7 and 1_x 10^4 cells/well/100 uL) and were plated a day before experiment in normal growth medium. The next day, medium was replaced with serum free medium (Gibco #11835-030) to starve the cells for 4 h. Cells were deprived of serum for 4 h before treatment with the lipids to eliminate binding of the compounds to serum proteins. After starvation, Cells (1_x 104 in 100 L) were seeded into each well with conditioned medium overnight (20 h) in a 96-well plate to which the test compounds (−ve control ethanol, Ft-3, F-6 and S5) were added at the concentrations indicated. A volume of 10 uL WST-1, cell proliferation assay reagent (Roche Diagnostics, Indianapolis, Ind., USA), was added to each well and incubated for 4 h. Then, the wells were read on a plate reader at 450 nm with a reference reading at 650 nm. Reference reading at 650 nm was used for subtracting background readouts.

Hep3B cells = assay: Invasion chamber (transwell) assay / metastatic potential, Hep3B cells; type: cell-based, human; details: FIGS. 17A-17E
Protocol: (§1) Another embodiment of the anti-cancer oral composition was prepared by combining lipid Fraction 1 with ethanol to provide a first mixture in a ratio of 5 μg/mL, a second mixture in a ratio of 10 μg/mL, and a third mixture in a ratio of 25 μg/mL. The mixtures and a control (0.1% ethanol) were tested for inhibition of metastatic potential of cancer Hep3B cell line (FIGS. 13A-13E) and cancer Panc-1 cell line (FIGS. 13F-131).
(§2) An aliquot of 0.5 ml Hep3B or Panc-1 cell suspension in serum-free medium with BSA (1 mg/ml) containing 6×10^4 cells/ml was mixed with F6 and then applied to each invasion chamber. An aliquot of 0.5 ml medium with 10% serum was loaded into the bottom of the well. After incubation for 6 hours, cells that invaded to the bottom surface of the transwell were fixed with 70% ethanol, stained with Diff Quik solution (Sysmex), and counted in five selected fields.

[3] = system: human pancreatic cancer cells (Panc-1 cells); assay: Cell growth inhibition, Panc-1 pancreatic cancer cells; type: cell-based; details: F6 5-50 μg/ml for 72 hours, FIG. 18A
Capan2 cells = assay: Proliferation of Capan2 pancreatic cancer cells; type: cell-based, human; details: F6 5-50 μg/ml for 72 hours, FIG. 18A
BxPC3 cells = assay: Proliferation of BxPC3 pancreatic cancer cells; type: cell-based, human; details: F6 5-50 μg/ml for 72 hours, FIG. 18A
Panc-1 cells [4] = assay: Invasion chamber (transwell) assay, Panc-1 cells; type: cell-based, human; details: concentration dependent, 6 hours incubation, FIGS. 19A-19B
Protocol: as §1, §2

Panc-1 cells [5] = assay: Apoptosis induction (cell cycle, caspase-3), pancreatic cancer cells; type: cell-based, human; details: FIGS. 18A-18F

SMILES	anti-proliferative effect on leukemic K562 cells [1]	anti-proliferative effect on breast MCF-7 cells (breast MCF-7 cells)	anti-proliferative effect on breast MDA MB-231 cells [2]	Hep3B cell metastasis (markers migration and invasion) (Hep3B cells)	inhibition of proliferation of Panc-1 cells [3]	inhibition of proliferation of Capan2 cells (Capan2 cells)	inhibition of proliferation of BxPC3 cells (BxPC3 cells)	invasion of Panc-1 cells (Panc-1 cells [4])	mechanism of regulation of pancreatic cancer cell growth (Panc-1 cells [5])	effect of combination of Fraction 3 and Gleevec on K562 cell survival ([1]; Gleevec 2 uM with Fraction 3, WST-1, FIG. 3B)
CC(C)CCC[C@@H](C)[C@H]1CC[C@H]2[C@@H]3CC=C4C=CCC[C@]4(C)[C@H]3CC[C@]12C [Fraction S5, cholesta-3,5-diene]	anti-proliferative effects	anti-proliferative effects	anti-proliferative effects	inhibit cancer Hep3B cell metastasis						
CCCCCc1oc(CCCCCCCCCCC(=O)O)c(C)c1C [Fraction F6, 12,15-epoxy-13,14-dimethyleicosa-12,14-dienoic acid]	anti-proliferative effects	anti-proliferative effects	anti-proliferative effects	inhibit cancer Hep3B cell metastasis	potently inhibited proliferation	potently inhibited proliferation	potently inhibited proliferation	inhibited invasion	induction of apoptosis	
Cc1ccc(NC(=O)c2ccc(CN3CCN(C)CC3)cc2)cc1Nc1nccc(-c2cccnc2)n1 [Gleevec, reference compound]										potentiated the anti-proliferative effect

Reference: patent US20200281989A1, “METHOD OF PREPARING A COMPOSITION FOR TREATING CANCER” (priority 2019, published 2020)
